This passage reports AC50, IC50 and EC50 results from ChEMBL document CHEMBL1201862, “PubChem BioAssay data set” (2004).

Molecules are shown by their SMILES. Active and inactive are the calls of the source.

A short description of test [1]: HepG2 viability loss by ATP level – cell-based, CellTiter-Glo luminescence, cherry-pick, set 4, cytotoxicity control, dose response (AID 743480). The class given is functional. A general note: In ATP-based viability assays light output follows the ATP content of the culture.
The nature of test [2]: ATP-based viability loss in HEK293T cells – cell-based, CellTiter-Glo luminescence, cherry-picked samples, set 4, cytotoxicity control, dose response (AID 743441). The class given is functional. As to conditions: HEK293.
Test [3] in a line: Late stage assay provider results from the probe development effort to identify inhibitors of the Plasmodium falciparum M18 Aspartyl Aminopeptidase (M18AAP): radiolabel-based cell-based dose response assay to identify compounds that inhibit P. falciparum growth in RBCs, Set 2.. The test is classed as functional.
Test [4] in a line: A2780 cell killing – plate reader, dry powder samples, cytotoxicity control, dose response (AID 743046). The test is classed as functional, cell-based.
Test [5] is described as follows: COV362 cell viability loss – plate reader, dry powder, SA12, cytotoxicity control for PAX8 inhibitor project, dose response (AID 743144). The test is classed as functional, cell-based.
Test [6] is described as follows: OV-90 cell viability loss – plate reader, dry powder, SA8, PAX8 inhibitor project, dose response (AID 743149). The class given is functional, cell-based.
Test [7] is described as follows: Trypanosoma cruzi growth suppression in host cells – NIH3T3 host cells, beta-gal luminescence, confirmation (AID 2044).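 Further: intracellular parasites grown in NIH/3T3 mouse fibroblasts as host cells; luminescent beta-galactosidase reporter signal from transgenic T. cruzi replicating inside host cells; inhibitors lower the luminescence signal.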 The class given is functional, cell-based.
Test [8] can be described thus: PAX5 cellular inhibition readout – cell-based, plate reader, dry powder samples, selectivity assay for PAX8 inhibitor project, dose response (AID 743047).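 Further: HEK293 cells carrying a Pax5 driven CD19 promoter luciferase reporter; potency of inhibitors that lower reporter luminescence.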 The class given is functional.
A short description of test [9]: PAX8-dependent cell viability loss – plate reader, dry powder, dose response (AID 743049). The class given is functional, cell-based.
Test [10] in a line: NIH3T3 cell viability loss – ATP luminescence, mouse fibroblasts, counter-screen, dose response (AID 2010).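 Further: cells exposed to compound for about 90 hours before reading.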 The class given is functional, cell-based.
Test [11] can be described thus: COV434 cell viability loss – plate reader, dry powder, SA7, cytotoxicity control for PAX8 inhibitor project, dose response (AID 743145). The class given is functional, cell-based.
The nature of test [12]: OVCAR4 cell viability loss – plate reader, dry powder, SA11, cytotoxicity control for PAX8 inhibitor project, dose response (AID 743150). The test is classed as functional, cell-based. Conditions: OVCAR-4.
Test [13] can be described thus: toxicity toward immortalized ovarian surface epithelium – cell-based, plate reader, dry powder samples, cytotoxicity control for PAX8 inhibitor project, dose response (AID 743045). The class given is functional.
Test [14] in a line: OVCAR-3 cell viability loss – plate reader, dry powder samples, PAX8 inhibitor project, dose response (AID 743044). The class given is functional, cell-based.
The target in another test is Paired box protein Pax-8 (Homo sapiens, UniProt Q06710). Put plainly: PAX8 transcriptional activity inhibition in RMG-I – RMG-I cells, luciferase, cherry-pick, dose response (AID 687027).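 Further: luciferase reporter driven by Pax8 target thyroperoxidase promoter measured by SteadyGlo luminescence.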 The test is classed as functional, cell-based.
Sequence of Paired box protein Pax-8 (Q06710 whole entry): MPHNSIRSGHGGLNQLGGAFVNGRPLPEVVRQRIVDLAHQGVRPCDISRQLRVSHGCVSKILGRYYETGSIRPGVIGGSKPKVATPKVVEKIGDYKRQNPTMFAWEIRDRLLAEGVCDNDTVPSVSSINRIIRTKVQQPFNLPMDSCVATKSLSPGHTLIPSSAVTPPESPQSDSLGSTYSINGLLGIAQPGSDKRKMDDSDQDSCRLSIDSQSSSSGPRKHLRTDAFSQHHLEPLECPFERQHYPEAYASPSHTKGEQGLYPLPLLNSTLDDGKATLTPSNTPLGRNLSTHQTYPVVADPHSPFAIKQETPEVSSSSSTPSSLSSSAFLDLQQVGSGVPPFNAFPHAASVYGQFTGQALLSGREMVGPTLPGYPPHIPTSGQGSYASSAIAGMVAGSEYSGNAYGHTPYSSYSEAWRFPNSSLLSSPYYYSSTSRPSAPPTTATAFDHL
The nature of test [15]: inhibitors acting on PAX2 in cells – cell-based, plate reader, dry powder samples, selectivity assay for PAX8 inhibitor project, dose response (AID 743048).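 Further: HEK293 cells carrying a WT1 promoter luciferase reporter driven by expressed Pax2; potency is for inhibition of Pax2 driven reporter signal.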 The test is classed as functional.
The nature of test [16]: potency of ADAM10 substrate cleavage blockers – biochemical, QFRET, dose response (AID 743254).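 Further: ADAM10 enzyme with the DM2 quenched FRET peptide as substrate; EDANS fluorescence gain as the protease cuts the substrate; inhibitor potency against ADAM10 proteolytic activity.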
Test [17] addresses ATP-dependent molecular chaperone HSP82 (Candida albicans (strain WO-1) (Yeast), UniProt C4YTQ8). Put plainly: steroid-induced GRE reporter decrease in yeast – S. cerevisiae, luminescence, Hsp90 inhibitor project, dose response (AID 2400).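 Further: beta-galactosidase luminescence from glucocorticoid response element reporter as proxy for Hsp90 function; inhibitor potency where signal loss means Hsp90 inhibition.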 The test is classed as functional, cell-based.
Test [18] deals with Disintegrin and metalloproteinase domain-containing protein 17 (Homo sapiens, UniProt P78536). Put plainly: inhibition of ADAM17 substrate cleavage – biochemical, quenched FRET substrate, counter-screen for ADAM10 exosite inhibitor project, dose response (AID 743253). On the technique in general: Counterscreens check selectivity or assay interference.
Sequence of Disintegrin and metalloproteinase domain-containing protein 17 (P78536 whole entry, the tested form may be a part): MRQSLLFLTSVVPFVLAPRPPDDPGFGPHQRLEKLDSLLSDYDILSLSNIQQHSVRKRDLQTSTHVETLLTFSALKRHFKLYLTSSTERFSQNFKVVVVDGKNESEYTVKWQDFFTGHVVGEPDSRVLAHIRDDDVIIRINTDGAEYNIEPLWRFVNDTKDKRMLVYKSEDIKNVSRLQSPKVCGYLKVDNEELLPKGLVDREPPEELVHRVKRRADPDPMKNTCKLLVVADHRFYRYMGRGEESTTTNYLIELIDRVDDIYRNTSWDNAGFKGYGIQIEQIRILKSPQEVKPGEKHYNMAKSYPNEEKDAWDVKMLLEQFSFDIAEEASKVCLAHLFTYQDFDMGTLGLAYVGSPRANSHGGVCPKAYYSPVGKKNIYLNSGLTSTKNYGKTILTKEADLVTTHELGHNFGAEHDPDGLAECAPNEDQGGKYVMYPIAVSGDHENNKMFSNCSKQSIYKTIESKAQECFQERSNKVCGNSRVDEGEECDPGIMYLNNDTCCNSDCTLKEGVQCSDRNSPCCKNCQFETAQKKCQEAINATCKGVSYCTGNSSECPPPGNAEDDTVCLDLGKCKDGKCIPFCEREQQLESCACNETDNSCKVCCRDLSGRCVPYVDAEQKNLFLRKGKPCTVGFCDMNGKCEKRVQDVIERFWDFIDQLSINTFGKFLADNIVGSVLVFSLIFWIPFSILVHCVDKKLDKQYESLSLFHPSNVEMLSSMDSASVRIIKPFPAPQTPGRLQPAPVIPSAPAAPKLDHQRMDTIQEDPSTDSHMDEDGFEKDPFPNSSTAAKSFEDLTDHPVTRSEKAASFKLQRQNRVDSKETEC
Test [19] deals with T1, Serine/threonine-protein phosphatase (Candida dubliniensis (strain CD36 / CBS 7987 / NCPF 3949 / NRRLY-17841) (Yeast), UniProt B9W6M3).
T1 sequence (B9W6M3 whole entry): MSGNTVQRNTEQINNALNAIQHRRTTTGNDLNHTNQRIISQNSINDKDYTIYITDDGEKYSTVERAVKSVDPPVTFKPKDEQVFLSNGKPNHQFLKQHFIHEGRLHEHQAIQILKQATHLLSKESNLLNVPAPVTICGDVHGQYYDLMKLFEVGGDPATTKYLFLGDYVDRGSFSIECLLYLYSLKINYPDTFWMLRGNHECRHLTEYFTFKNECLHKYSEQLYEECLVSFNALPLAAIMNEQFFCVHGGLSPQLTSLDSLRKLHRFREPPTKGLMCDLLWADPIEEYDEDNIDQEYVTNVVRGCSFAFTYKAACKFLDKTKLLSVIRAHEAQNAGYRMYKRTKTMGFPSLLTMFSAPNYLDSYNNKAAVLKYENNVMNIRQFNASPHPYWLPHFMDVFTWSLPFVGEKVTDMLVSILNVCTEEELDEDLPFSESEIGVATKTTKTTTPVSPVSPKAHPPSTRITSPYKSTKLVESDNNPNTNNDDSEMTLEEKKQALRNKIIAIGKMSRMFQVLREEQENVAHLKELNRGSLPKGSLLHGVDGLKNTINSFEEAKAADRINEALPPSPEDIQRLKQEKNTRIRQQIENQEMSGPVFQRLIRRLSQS
The test can be described thus: blockers of CaCl2-induced CDRE-lacZ signaling – S. cerevisiae, luminescence, secondary, dose response (AID 2388).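 Further: yeast reporter cells carrying a calcineurin-responsive lacZ construct stimulated with calcium chloride; luminescent beta-galactosidase reporter signal in whole cells rather than isolated phosphatase activity; potency for inhibition where a drop in reporter signal means calcineurin blockade.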 The class given is functional, cell-based.

Test [20] in a line: NIH-3T3 fibroblast cytotoxicity, dose response, cytotoxicity control, cell-based, fluorescence, Alamar Blue, secondary assay (AID 2327).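 Further: NIH-3T3 mouse fibroblasts cultured with fluconazole at 8 µg/mL.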 The test is classed as functional. For orientation: The colour change of resazurin is a common sign of viable cells or microbes.
A short description of test [21]: fluconazole-exposed Candida albicans growth modulators – fluorescence, retest, confirmation (AID 2467). The test is classed as functional, cell-based.
Test [22] can be described thus: inhibition of Env-driven cell fusion – HIV entry, plate reader, dry powder, dose response (AID 687023). The class given is functional, cell-based.
Test [23] is described as follows: blockers of HIV-1 envelope-mediated cell-cell fusion – cherry-pick, dose response (AID 652057). The test is classed as functional, cell-based.
Test [24] can be described thus: blockers of HIV-1 ZM109 envelope-driven cell-cell fusion – HeLa effector, CEM target cells, luciferase, cherry-pick, dose response (AID 652058).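 Further: luciferase signal from HIV-1 Env mediated cell-cell fusion of effector and target cells.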 The class given is functional, cell-based.
Test [25] can be described thus: HIV-1 AD8 envelope cell-cell fusion blockers – cherry-pick, dose response (AID 652062).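 Further: luciferase signal from cell-cell fusion driven by HIV-1 clade B AD8 Env; potency is for inhibitors of fusion seen as a drop in luminescence.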 The test is classed as functional, cell-based.
A short description of test [26]: viability loss in CEM21 cells – cell-based, plate reader, dry powder, cytotoxicity control, dose response (AID 687026). The class given is functional.
Test [27] can be described thus: reduced cellular PGC1a acetyl-lysine signal – cell-based, cherry-picked samples, dose response (AID 720514).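 Further: potency may reflect raised or lowered acetylation signal.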 The class given is functional.
Test [28] is described as follows: RKO cell viability reduction, dose response, CellTiter-Glo luminescence (AID 1117322). The class given is functional.
A short description of test [29]: Reduced DLD-1 viability, concentration-response, CellTiter-Glo luminescence (AID 1117352). The test is classed as functional.
Test [30] can be described thus: HCT116 cell viability decrease, GSK3B pretreatment – CellTiter-Glo, IC50, dose response (AID 1117339). The class given is functional. As to conditions: HCT-116.
A short description of test [31]: CellTiter-Glo luminescence survival assay, SW480 colon tumor line, concentration-response curve, half-maximal inhibitory concentration (AID 1117338). The test is classed as functional.
Test [32] in a line: rise of 2N DNA cells, HeLa – IC50, dose response (AID 1117349). The test is classed as functional, cell-based.
Test [33] can be described thus: SNU-C1 cell viability reduction, dose response, CellTiter-Glo luminescence (AID 1117323). The test is classed as functional, cell-based.
The nature of test [34]: cytotoxicity toward HT-29 cells – cell-based, CellTiter-Glo luminescence, IC50, dose response (AID 1117330). The class given is functional.
Test [35] can be described thus: rise of 4N DNA cells, HeLa – IC50, dose response (AID 1117351). The test is classed as functional, cell-based.
Test [36] can be described thus: cytotoxicity toward HCT116 cells – cell-based, CellTiter-Glo luminescence, IC50, dose response (AID 1117332). The class given is functional. Conditions: HCT-116.
Test [37] can be described thus: cytotoxicity toward Colo320 cells – cell-based, CellTiter-Glo luminescence, IC50, dose response (AID 1117334). Conditions: COLO 320. The class given is functional.

Sequence of ATP-dependent molecular chaperone HSP82 (C4YTQ8 whole entry, the tested form may be a part): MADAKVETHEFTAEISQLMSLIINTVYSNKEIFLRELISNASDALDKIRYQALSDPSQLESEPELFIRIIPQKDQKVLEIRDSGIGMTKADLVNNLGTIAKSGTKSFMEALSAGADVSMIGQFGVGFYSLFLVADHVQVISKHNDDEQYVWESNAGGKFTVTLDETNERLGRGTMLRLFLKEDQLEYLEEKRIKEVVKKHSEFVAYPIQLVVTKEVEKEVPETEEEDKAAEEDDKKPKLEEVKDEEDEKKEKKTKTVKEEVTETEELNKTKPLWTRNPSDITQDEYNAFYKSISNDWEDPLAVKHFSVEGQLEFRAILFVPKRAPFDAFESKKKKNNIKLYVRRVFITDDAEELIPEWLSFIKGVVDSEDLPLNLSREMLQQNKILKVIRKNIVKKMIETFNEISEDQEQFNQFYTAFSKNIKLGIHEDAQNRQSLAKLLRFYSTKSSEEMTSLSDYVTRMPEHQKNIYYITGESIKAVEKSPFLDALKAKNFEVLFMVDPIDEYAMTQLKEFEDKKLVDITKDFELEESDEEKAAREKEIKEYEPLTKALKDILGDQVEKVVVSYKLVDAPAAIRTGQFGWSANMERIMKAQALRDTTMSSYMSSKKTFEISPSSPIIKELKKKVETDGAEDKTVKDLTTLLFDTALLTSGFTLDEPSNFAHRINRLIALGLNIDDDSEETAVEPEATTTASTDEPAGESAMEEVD

What is called AC50 is the midpoint of the concentration-response curve, whichever way the signal moves. With `CCn1c(S)nnc1-c1cc(-c2ccc(OC(C)C)cc2)nc2ccccc12`, the AC50 in [1] and in [2] was > 52 µM (inactive) throughout.
The term IC50 denotes the concentration that inhibits the measured activity by half. `Oc1ccc(C2CCN(c3ccnc4ccccc34)C2)cc1O` (stereo not drawn): in test [3], the half-inhibitory concentration (IC50) is 0.93 µM (active).
A word on the EC50: it is the concentration that produces a half-maximal response. Turning to `COc1ccc2c(c1)C(C)=CC(C)(C)N2S(=O)(=O)c1ccc(Br)cc1`, the AC50 in test [4] is 12 µM (active); in test [5] it was 15.3 µM (active); in test [6] it was 5.9 µM (active); in [8], 75.6 µM (active); in [9] it was 16 µM (active); in [11] it was 4.64 µM (active). Moreover, the AC50 in [12] is 5.89 µM (active); in test [13], 8.49 µM (active); in test [14], 8.79 µM (active); on Paired box protein Pax-8 it was 7.63 µM (active); in test [15] it was 63 µM (active). Besides, the EC50 in test [7] was 2.06 µM (active); in [10], 1.05 µM (active).
For `Cc1cc(C)c(-c2cc(NC(=O)COC(=O)c3ccc(C#N)cc3)n(-c3ccccc3)n2)cc1C`, the IC50 in test [16] and in test [18] was > 69.5 µM (inactive) in each case. For the same molecule, the EC50 is > 160 µM (inactive) in [17], > 180 µM (inactive) in test [19], > 150 µM (inactive) in test [20] and 0.092 µM (active) in test [21].
For the molecule `CCCNC(=O)N1[C@H](C#N)[C@H](c2ccc(-c3cccnc3)cc2)[C@@H]1CO`, the AC50 is 1.61 µM (active) in test [22]; 0.93 µM (active) in [23]; 10.2 µM (active) in test [24]; 4.97 µM (active) in test [25]; > 70 µM (inactive) in test [26].
As for `OC[C@@H]1[C@H](c2ccc(/C=C/c3ccccc3)cc2)[C@H]2CN(CCC(F)(F)F)CCCCN12`, the concentration at half-maximal activity (AC50) in [27] is 17.4 µM (active).
As for `O=C(NOCC1CC1)c1ccc(F)c(F)c1Nc1ccc(I)cc1Cl` [CI-1040], the concentration for half-maximal inhibition (IC50) in test [28] was 0.00319 µM (active); in test [29] it was 2.16 µM (active); in test [30], 0.969 µM (active); in [31] it was 0.00495 µM (active); in test [32], > 10 µM (inactive); in [33], 0.0171 µM (active). Moreover, the half-inhibitory concentration (IC50) in [34] was 0.0263 µM (active); in test [35], > 10 µM (inactive); in test [36] it was 0.00179 µM (active); in test [37], 0.848 µM (active).
